Assay results as given in ChEMBL document CHEMBL1201862, “PubChem BioAssay data set” (2004).
Each block holds one compound with its values, some of them ahead of it. The source made the active and inactive calls.

Assays:
[1] = blockers of HIV-1 envelope-mediated cell-cell fusion – cherry-pick, dose response (AID 652057); assay type: functional, cell-based
[2] = HIV-1 AD8 envelope cell-cell fusion blockers – cherry-pick, dose response (AID 652062); assay type: functional, cell-based;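 further: luciferase signal from cell-cell fusion driven by HIV-1 clade B AD8 Env; potency is for inhibitors of fusion seen as a drop in luminescence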
[3] = off-target signal loss in HeLa-CEM21 co-culture – HeLa F-luc CTL cells, cherry-picked, counter-screen for HIV-1 Env fusion inhibitor project, dose response (AID 652040); assay type: functional, cell-based;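 further: potency for signal decrease marking cytotoxic or nonspecific inhibition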
[4] = blockers of HIV-1 ZM109 envelope-driven cell-cell fusion – HeLa effector, CEM target cells, luciferase, cherry-pick, dose response (AID 652058); assay type: functional, cell-based;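 further: luciferase signal from HIV-1 Env mediated cell-cell fusion of effector and target cells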
[5] = biological target: T1, Short transient receptor potential channel 4 (Mus musculus, UniProt Q9QUQ5); experiment: block of DAMGO-driven TRPC4 calcium entry – cell-based, HEK293 TRPC4/mu-opioid, Fluo-4 calcium, dose response (AID 434942); assay type: functional;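 further: potency of inhibitors blocking the TRPC4 calcium response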
T1 sequence (Q9QUQ5 whole entry): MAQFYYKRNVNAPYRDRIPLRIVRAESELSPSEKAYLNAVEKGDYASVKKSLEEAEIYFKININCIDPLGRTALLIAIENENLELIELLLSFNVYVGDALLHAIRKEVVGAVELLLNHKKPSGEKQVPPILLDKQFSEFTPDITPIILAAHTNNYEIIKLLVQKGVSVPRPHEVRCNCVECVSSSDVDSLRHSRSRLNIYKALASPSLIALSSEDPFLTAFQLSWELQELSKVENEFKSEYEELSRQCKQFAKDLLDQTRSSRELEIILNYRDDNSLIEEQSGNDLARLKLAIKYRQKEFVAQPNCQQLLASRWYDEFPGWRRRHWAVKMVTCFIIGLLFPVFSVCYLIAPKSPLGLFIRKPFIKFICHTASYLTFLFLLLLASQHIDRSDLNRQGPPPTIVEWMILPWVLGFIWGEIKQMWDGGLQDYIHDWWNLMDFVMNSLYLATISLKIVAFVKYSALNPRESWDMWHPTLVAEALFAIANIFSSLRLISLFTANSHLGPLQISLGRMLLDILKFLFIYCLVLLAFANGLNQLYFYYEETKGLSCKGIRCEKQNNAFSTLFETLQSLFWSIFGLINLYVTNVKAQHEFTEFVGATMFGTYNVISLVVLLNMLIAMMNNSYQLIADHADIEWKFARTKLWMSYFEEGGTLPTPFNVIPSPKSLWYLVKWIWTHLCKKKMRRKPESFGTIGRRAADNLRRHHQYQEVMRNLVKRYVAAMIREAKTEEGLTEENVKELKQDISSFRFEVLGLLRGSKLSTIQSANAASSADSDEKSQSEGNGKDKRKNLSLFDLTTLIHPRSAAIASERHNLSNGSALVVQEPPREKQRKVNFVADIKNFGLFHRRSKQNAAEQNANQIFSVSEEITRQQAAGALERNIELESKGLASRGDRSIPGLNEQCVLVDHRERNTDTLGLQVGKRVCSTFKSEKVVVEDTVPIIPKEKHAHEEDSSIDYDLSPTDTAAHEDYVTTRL

[6] = reduction of Shn3 3'UTR-driven luciferase in osteoblasts – cell-based, Clone20 osteoblasts, firefly luciferase, cherry-picked, dose response (AID 624132); assay type: functional;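 further: firefly luciferase luminescence from reporter carrying the Shn3 3'UTR in osteoblasts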
[7] = non-specific 3'UTR reporter inhibition in Clone20-Shn3RL – cell-based, Renilla luciferase, cherry-picked, counter-screen for Shn3 inhibitor project, dose response (AID 624133); assay type: functional
Paired box protein Pax-8 = Paired box protein Pax-8 (Homo sapiens, UniProt Q06710); experiment: PAX8 transcriptional activity inhibition in RMG-I – RMG-I cells, luciferase, cherry-pick, dose response (AID 687027); assay type: functional, cell-based;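 further: luciferase reporter driven by Pax8 target thyroperoxidase promoter measured by SteadyGlo luminescence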
Vero = experiment: mammalian cell viability reduction – secondary assay, cytotoxicity control for West Nile virus antiviral project, dose response (AID 1650); assay type: functional; conditions: Chlorocebus sabaeus
Leucine aminopeptidase = biological target: T2, Leucine aminopeptidase (Plasmodium falciparum 3D7, UniProt Q8IL11); experiment: P. falciparum M17LAP inhibitors, primary screen, biochemical, fluorogenic H-Leu-NHMec substrate, 1536-well (AID 1619); assay type: functional
T2 sequence (Q8IL11 whole entry): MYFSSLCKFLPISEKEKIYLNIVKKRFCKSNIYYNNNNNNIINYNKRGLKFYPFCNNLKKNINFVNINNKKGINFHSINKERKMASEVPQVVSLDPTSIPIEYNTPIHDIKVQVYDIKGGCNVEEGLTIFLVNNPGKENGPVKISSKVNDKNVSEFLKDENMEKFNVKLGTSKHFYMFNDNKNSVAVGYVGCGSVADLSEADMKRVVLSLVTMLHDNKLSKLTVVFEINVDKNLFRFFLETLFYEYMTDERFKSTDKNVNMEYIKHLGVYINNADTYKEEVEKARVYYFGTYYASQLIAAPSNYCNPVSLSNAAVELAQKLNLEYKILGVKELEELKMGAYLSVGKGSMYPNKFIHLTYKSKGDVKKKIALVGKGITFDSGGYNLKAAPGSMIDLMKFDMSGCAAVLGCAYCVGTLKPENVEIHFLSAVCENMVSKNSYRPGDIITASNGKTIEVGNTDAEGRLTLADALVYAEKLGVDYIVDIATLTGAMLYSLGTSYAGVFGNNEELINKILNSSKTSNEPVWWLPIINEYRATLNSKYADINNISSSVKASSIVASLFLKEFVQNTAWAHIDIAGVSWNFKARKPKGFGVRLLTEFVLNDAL

Procathepsin L = Procathepsin L (Homo sapiens, UniProt P07711); experiment: CTSL1 protease inhibition – biochemical, QFRET, 1536-well, counter-screen for M1/M17 aminopeptidase inhibitor project, dose response (AID 2214)
Aspartyl aminopeptidase = biological target: T3, Aspartyl aminopeptidase (Plasmodium falciparum 3D7, UniProt Q8I2J3); experiment: Counterscreen for inhibitors of M1 and M17 aminopeptidases: QFRET-based biochemical high throughput dose response assay for inhibitors of the Plasmodium falciparum M18 Aspartyl Aminopeptidase (PFM18AAP). [Related PubChem assays: 1619 (Screening assay (M17LAP inhibitors).), 1445 (Screening assay (M1AAP inhibitors).)]
T3 sequence (Q8I2J3 whole entry): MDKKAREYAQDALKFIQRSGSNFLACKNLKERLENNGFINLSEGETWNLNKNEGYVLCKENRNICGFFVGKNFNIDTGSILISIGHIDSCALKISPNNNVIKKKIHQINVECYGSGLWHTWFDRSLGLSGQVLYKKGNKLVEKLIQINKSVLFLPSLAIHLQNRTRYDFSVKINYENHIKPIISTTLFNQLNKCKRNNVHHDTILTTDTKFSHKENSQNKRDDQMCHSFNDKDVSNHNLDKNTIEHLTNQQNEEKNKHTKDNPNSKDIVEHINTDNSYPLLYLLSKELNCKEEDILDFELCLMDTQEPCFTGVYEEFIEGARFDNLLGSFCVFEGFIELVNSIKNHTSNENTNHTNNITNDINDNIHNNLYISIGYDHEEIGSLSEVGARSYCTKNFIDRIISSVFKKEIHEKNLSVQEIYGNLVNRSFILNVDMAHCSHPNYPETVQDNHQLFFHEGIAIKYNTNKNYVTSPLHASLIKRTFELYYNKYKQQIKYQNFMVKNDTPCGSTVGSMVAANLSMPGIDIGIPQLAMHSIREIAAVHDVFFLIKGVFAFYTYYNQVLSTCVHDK

Aminopeptidase N = biological target: T4, Aminopeptidase N (Plasmodium falciparum FcB1/Columbia, UniProt O96935); experiment: malaria alanyl aminopeptidase activity blockers – biochemical, fluorogenic H-Leu-NHMec substrate, 1536-well (AID 1445); design: species or system Plasmodium falciparum 3D7, 3D7
T4 sequence (O96935 whole entry): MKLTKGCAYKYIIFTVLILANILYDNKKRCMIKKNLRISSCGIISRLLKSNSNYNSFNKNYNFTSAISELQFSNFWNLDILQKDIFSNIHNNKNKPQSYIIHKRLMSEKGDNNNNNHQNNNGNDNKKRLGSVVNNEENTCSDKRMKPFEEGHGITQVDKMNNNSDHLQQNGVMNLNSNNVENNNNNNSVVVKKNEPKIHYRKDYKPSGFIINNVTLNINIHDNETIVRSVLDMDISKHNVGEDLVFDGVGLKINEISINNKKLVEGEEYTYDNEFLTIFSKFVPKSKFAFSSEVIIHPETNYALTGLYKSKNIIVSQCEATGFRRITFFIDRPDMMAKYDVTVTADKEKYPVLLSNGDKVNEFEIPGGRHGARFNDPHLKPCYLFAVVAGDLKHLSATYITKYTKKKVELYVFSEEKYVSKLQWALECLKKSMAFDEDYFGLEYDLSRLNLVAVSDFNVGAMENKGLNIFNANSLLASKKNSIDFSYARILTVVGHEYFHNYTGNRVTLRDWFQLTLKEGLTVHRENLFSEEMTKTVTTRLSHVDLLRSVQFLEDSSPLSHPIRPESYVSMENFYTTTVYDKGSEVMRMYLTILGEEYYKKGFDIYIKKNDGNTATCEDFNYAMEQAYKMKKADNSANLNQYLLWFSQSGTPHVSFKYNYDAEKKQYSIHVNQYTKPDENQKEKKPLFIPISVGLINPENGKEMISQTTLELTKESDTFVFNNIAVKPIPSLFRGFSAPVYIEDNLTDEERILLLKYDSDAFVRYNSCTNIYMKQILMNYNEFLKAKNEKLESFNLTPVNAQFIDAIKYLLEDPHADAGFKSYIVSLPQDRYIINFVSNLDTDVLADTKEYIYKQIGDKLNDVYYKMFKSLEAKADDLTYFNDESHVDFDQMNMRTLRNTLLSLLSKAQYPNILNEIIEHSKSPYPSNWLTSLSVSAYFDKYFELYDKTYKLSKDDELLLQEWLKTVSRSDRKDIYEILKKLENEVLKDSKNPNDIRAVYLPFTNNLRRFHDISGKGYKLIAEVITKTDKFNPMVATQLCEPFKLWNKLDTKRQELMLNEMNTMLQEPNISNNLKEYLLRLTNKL

Sequence of Procathepsin L (P07711 whole entry): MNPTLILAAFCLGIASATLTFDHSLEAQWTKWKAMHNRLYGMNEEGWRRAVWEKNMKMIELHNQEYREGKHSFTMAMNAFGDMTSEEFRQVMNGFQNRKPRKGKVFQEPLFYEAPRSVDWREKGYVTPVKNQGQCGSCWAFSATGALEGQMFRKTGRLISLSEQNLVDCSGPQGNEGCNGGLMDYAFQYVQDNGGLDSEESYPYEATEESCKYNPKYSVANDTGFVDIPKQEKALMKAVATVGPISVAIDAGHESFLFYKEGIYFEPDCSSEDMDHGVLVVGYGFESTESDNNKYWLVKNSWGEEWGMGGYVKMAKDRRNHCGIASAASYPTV
Sequence of Paired box protein Pax-8 (Q06710 whole entry): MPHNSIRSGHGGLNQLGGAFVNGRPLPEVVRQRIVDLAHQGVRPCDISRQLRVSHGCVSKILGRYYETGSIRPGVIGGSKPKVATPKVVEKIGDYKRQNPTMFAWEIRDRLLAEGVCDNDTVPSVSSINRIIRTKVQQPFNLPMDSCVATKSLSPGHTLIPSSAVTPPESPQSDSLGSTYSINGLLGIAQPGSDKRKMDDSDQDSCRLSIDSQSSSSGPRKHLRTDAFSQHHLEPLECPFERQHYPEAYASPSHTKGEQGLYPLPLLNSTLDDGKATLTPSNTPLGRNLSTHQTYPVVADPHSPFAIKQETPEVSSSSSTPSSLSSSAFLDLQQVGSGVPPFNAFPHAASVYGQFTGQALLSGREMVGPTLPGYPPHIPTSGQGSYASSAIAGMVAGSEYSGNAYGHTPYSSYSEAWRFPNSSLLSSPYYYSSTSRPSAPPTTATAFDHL

SMILES: O=C(Nc1ccccc1N1CCN(C(=O)c2ccccc2)CC1)c1ccc(Br)o1
AC50 [1]: 10.2 µM (active)
AC50 [2]: 11 µM (active)
AC50 [3]: 15.2 µM (active)
AC50 [4]: 12.1 µM (active)
EC50 [5]: 0.596 µM (active)

SMILES: C=C1C(=O)[C@@]23[C@H](O)C[C@@H]4C(C)(C)CC[C@H](O)[C@]4(C)[C@@H]2C[C@H](O)[C@@H]1[C@H]3O
AC50 [6]: 2.95 µM (active)
AC50 [7]: 18.3 µM (active)
AC50 (Paired box protein Pax-8): 3.37 µM (active)
CC50 (Vero): 14.9 µM (active)

SMILES: Cc1ccc(-n2c(C)cc(C(=O)COC(=O)c3ccc[nH]c3=O)c2C)cc1
IC50 (Leucine aminopeptidase): 1.22 µM (active)
IC50 (Procathepsin L): > 59.6 µM (not active)
IC50 (Aspartyl aminopeptidase): > 73.5 µM (not active)

SMILES: Clc1ccc(COc2ccccc2CNCc2cccnc2)cc1
EC50 [5]: 2.99 µM (active)

SMILES: CCC(C)NCCOCCOc1ccccc1-c1ccccc1 (stereo not given)
EC50 [5]: 1.19 µM (active)

The next lines start with the values.

IC50 (Leucine aminopeptidase): < 1 µM (active)
IC50 (Procathepsin L): > 59.6 µM (not active)
IC50 (Aspartyl aminopeptidase): > 73.5 µM (not active)
SMILES: CCc1cc2ccccc2nc1SCC(=O)Nc1cc(OC)c(OC)cc1C(=O)O

IC50 (Procathepsin L): > 59.6 µM (not active)
IC50 (Aminopeptidase N): 11.9 µM (active)
IC50 (Aspartyl aminopeptidase): > 73.5 µM (not active)
SMILES: O=C(Nn1c(Cc2cccs2)nc2ccccc2c1=O)c1cccs1
